The source of these data is patent US5258395A, “Thiazole compounds as inhibitors of SRS-A” (Yamanouchi Pharmaceutical Co., Ltd., priority 1984, dated 1993).

Data set [1] deals with SRS-A-induced contraction of guinea pig ileum. Description: Inhibition of SRS-A-induced contraction of guinea pig ileum. The settings on record: submaximal concentration of SRS-A (derived from guinea-pig lung), 20 min incubation, read-out: Anti-SRS-A GP ileum IC50. As to the method:
(§1) Initiation of SRS-A- and LTD4 -Induced Contraction of Guinea Pig Ileum and Trachea
(§2) Method: Male Hartley guinea-pigs, weighing 500 to 700 g were killed by a blow on the head. The ileum and tracheal strips prepared according to the method of Constantine (1965) were suspended with 1.0 g tension in an organ bath containing 10 ml of Tyrode's solution equilibrated with a mixture of 95% O2 and 5% CO2 at 37° C. The tissues were equilibrated for 60 min.; during this period the Tyrode solution was replaced every 15 min. and the loading tension was adjusted to 1.0 g. The developed tension of the tissues was measured isometrically with a strain gauge transducer, and recorded on a Recticorder. Both the contractile response of the ileum to submaximal concentration of SRS-A (derived from guinea-pig lung) and the tracheal response to 10^-8 M LTD4 were measured in the absence and then the presence of various concentrations of test compounds. The incubation time of the compounds was 20 min.

Data set [2] deals with LTD4-induced contraction of guinea pig trachea. Kind of data set: Inhibition of LTD4-induced contraction of guinea pig trachea. The settings on record: 10^-8 M LTD4, 20 min incubation, read-out: Anti-LTD4 GP trachea IC50. As to the method:
as §1, §2

The test system of data set [3] is mice. Description: Toxicity, oral administration to mice. It counts as in vivo. The note with it: orally.
In data set [4] the test system is rats. Kind of data set: Toxicity, oral administration to rats. The class given is in vivo. The settings on record: orally.
In data set [5] the test system is SRS-A-mediated anaphylactic asthma. Kind of data set: Inhibition of SRS-A-mediated anaphylactic asthma in conscious guinea-pigs. It counts as in vivo, guinea pig. The settings on record: for Time to onset of cough / Mortality: 30 min before antigen challenge; for Time to onset of cough: N=8. As to the method:
Inhibition of SRS-A-Mediated Anaphylactic Asthma in Conscious Guinea-Pigs
Method: Male Harley guinea-pigs, weighing 370 to 410 g were passively sensitized by intravenously injecting 1 ml/kg of rabbit […] anti-bovine serum albumin serum (PHA titer: 20480). Twenty-four hours after the sensitization, indomethacine (2 mg/kg), mepyramine (2 mg/kg) and propranolol (0.3 mg/kg) were injected into the saphenous vein 20, 5 and 5 min., respectively, prior to the antigen challenge. Then, animals were placed in an 11 liter chamber connected to a glass nebulizer, and 1% solution of bovin serum albumin was sprayed into the chamber for 30 seconds. The animals were exposed to the antigen aerosol for 2 min. and observed for 15 min. after challenge. The time from the start of inhalation to the onset of cough and the mortality were recorded. Test compounds were orally administered 30 min. before antigen challenge.
^a) Animals were pretreated with mepyramine (2 mg/kg i.v.),
propranolol (0.3 mg/kg i.v.) and indomethacine (2 mg/kg i.v.) 5, 5 and 20
min., respectively, prior to antigen challenge.
^b) Test compound was orally administered 30 min. before antigen

The conditions of data set [6]: cited from earlier work.
The test system of data set [7] is SRS-A. The settings on record: cited from earlier work.

One may read the IC50 as the concentration that inhibits the measured activity by half. `CCCc1c(OCCCSc2nnc(N)s2)ccc(C(C)=O)c1O` [Example 2, 4-[3-[(5-amino-1,3,4-thiadizol-2-yl)thio]propoxy]-2-hydroxy-3-propylacetophenone]: the half-inhibitory concentration (IC50) in data set [1] is 180 nM. Still for that read-out and setting: the same measure for `CCCc1c(OCCCSc2nnc(S)s2)ccc(C(C)=O)c1O` [Example 7, 2-Hydroxy-4-[[3-(5-mercapto-1,3,4-thiadiazol-2-yl)thio]propoxy]-3-propylacetophenone]: 110 nM. With `CCCc1c(OCCCSc2nnc(SCC(=O)O)s2)ccc(C(C)=O)c1O` [Example 21, [[5-[[3-(4-acetyl-3-hydroxy-2-propylphenoxy)propyl]thio]-1,3,4-thiadiazol-2-yl]thio]acetic acid], the IC50 stood at 130 nM in data set [2] and 60 nM in data set [1]. In addition, the minimum fatal dose result in data set [3] and in data set [4] was “more than 1000 mg/kg” throughout. The “Inhibition of SRS-A-mediated anaphylactic asthma (in words)” value in data set [5] (3 mg/kg p.o.) is listed as “tended to inhibit the SRS-A-mediated anaphylactic asthma in conscious guinea-pigs, but this effect was not significant”; in data set [5] (10 mg/kg p.o. or higher), “significantly inhibited the SRS-A-mediated anaphylactic asthma”. In addition, the “Time to onset of cough” value in data set [5] (3 mg/kg p.o., control 293 ± 22) worked out at 377 ± 51 s; in data set [5] (10 mg/kg p.o., control 281 ± 19, * significant vs control), 397 ± 42 s; in data set [5] (30 mg/kg p.o., control 281 ± 11, ** p < 0.01 vs control), 457 ± 42 s. For the same compound, the Mortality in data set [5] (3 mg/kg p.o., control 6/8) is listed as 5/8; in data set [5] (10 mg/kg p.o., control 7/8, * significant vs control) it was 2/8; in data set [5] (30 mg/kg p.o., control 7/8, * significant vs control), 2/8. Take `CCCc1c(OCCCCSc2nnc(SCC(=O)O)s2)ccc(C(C)=O)c1O` [Example 23, [[5-[[4-(4-acetyl-3-hydroxy-2-propylphenoxy)butyl]thio]-1,3,4-thiadiazol-2-yl]thio]acetic acid]: the IC50 in data set [1] was found to be 150 nM. On to `CCCc1c(OCCCCCSc2nnc(SCC(=O)O)s2)ccc(C(C)=O)c1O` [Example 24, [[5-[[5-(4-Acetyl-3-hydroxy-2-propylphenoxy)pentyl]thio]-1,3,4-thiadiazol-2-yl]thio]acetic acid], for which the half-inhibitory concentration (IC50) in data set [1] worked out at 190 nM. On to `CCCc1c(OCCCSc2nnc(SCCC(=O)O)s2)ccc(C(C)=O)c1O` [Example 26], for which, in data set [1], the IC50 was 120 nM. On the same count and under the same terms, for `CCCc1c(OCCCSc2snc(O)c2C(=O)O)ccc(C(C)=O)c1O` [Example 27, 5-[[3-(4-acetyl-3-hydroxy-2-propylphenoxy)propyl]thio]-3-hydroxy-4-isothiazol carboxylic acid] the value was 190 nM; for `CCCc1c(OCCCSc2nnc(NC(=O)CC(=O)O)s2)ccc(C(C)=O)c1O` [Example 33, 3-[[5-[[3-(4-acetyl-3-hydroxy-2-propylphenoxy)propyl]thio]-1,3,4-thiadiazol-2-yl]amino]-3-oxopropionic acid], 91 nM; for `CCCc1c(OCCCSc2nnc(NC(=O)C(=O)O)s2)ccc(C(C)=O)c1O` [Example 36, N-[5-[[3-(4-Acetyl-3-hydroxy-2-propylphenoxy)propyl]thio]-1,3,4-thiadizol-2-yl]oxamic acid], 140 nM.

As for `CCCc1c(OCCCSc2cc(C(=O)O)nc(SC)n2)ccc(C(C)=O)c1O` [Example 37, 6-[[3-(4-Acetyl-3-hydroxy-2-propylphenoxy)propyl]thio]-2-methylthio-4-pyrimidinecarboxylic acid], in data set [1], the 50% inhibitory concentration (IC50) was 52 nM. Take `CCCc1c(OCCCSc2nnc(SCCCC(=O)O)s2)ccc(C(C)=O)c1O` [Example 38, 4-[[5-[[3-(4-Acetyl-3-hydroxy-2-propylphenoxy)propyl]thio]-1,3,4-thiadiazol-2-yl]thio]butyric acid]: the half-inhibitory concentration (IC50) turned out to be 230 nM in data set [2] and 38 nM in data set [1].

Take `CCCc1c(OCCCSc2nnc(SCCCCC(=O)O)s2)ccc(C(C)=O)c1O` [Example 41, 5-[[5-[[3-(4-Acetyl-3-hydroxy-2-propylphenoxy)propyl]thio]-1,3,4-thiadiazol-2-yl]thio]valeric acid]: the half-inhibitory concentration (IC50) in data set [1] was 64 nM. The same measure, in the same setting: the same measure for `CCCc1c(OCCCSc2nnc(SCCCCCC(=O)O)s2)ccc(C(C)=O)c1O` [Example 42, 6-[[5-[[3-(4-Acetyl-3-hydroxy-2-propylphenoxy)propyl]thio]-1,3,4-thiadizol-2-yl]thio]hexanoic acid]: 130 nM; for `CCCc1c(OCCCSc2nnc(SC(C)CCC(=O)O)s2)ccc(C(C)=O)c1O` (stereo not shown) [Example 44, 4-[[5-[[3-(4-Acetyl-3-hydroxy-2-propylphenoxy)propyl]thio]-1,3,4-thiadizol-2-yl]thio]valeric acid]: 130 nM. `CCCc1c(OCCCSc2nnc(SCC(=O)N(C)O)s2)ccc(C(C)=O)c1O` [Example 51, 2-[[5-[[3-(4-acetyl-3-hydroxy-2-propylphenoxy)propyl]thio]-1,3,4-thiadiazol-2-yl]thio]-N-hydroxy-N-methylacetamide]: the IC50 worked out at 420 nM in data set [2] and 160 nM in data set [1]. With `CCCc1c(OCC(O)COc2ccc3c(=O)cc(C(=O)O)oc3c2CCC)ccc(C(C)=O)c1O` (stereo not shown) [FPL 55712], the biological half life entry in data set [6] (in vivo) is listed as “very short”. In data set [6] (oral route), the “absorption by oral route” value is “very poor”. Also, the “anti-SRS-A activity in isolated tissues” value in data set [7] is “potent anti-SRS-A activity in isolated tissues”.
